Reference: patent US11419843B2, “Small molecule BCL-2 functional converters as cancer therapeutics” (Oregon State University, priority 2016, dated 2022)
“Also recorded” adds a separate entry of the source.

What was measured:
[1] = system: Bcl-2 low and high expressing Jurkat lymphoma cells (Jurkat/Vector, Jurkat/Bcl-2); experiment: Cell viability in Bcl-2 low and high expressing Jurkat cells; format: cell-based, human
[2] = system: MDA-MB-231/Vector and MDA-MB-231/Bcl-2 cells; experiment: Viability screening assay in MDA-MB-231 cells with high and low Bcl-2 (CellTiter Glo); format: cell-based, human; settings: for Bcl-2 selective reduction in viability, MDA-MB-231/Bcl-2 vs MDA-MB-231/Vector: 10 μM, 10% serum; for Bcl-2 dependent reduction in viability, MDA-MB-231/Bcl-2 vs Vector: 10% FBS
Protocol: In one example, a triple negative breast cancer cell line, MDA-MB-231, was used for screening these libraries. […] At the end of the assay, cell viability was determined using the cell titer Glo assay. […] A hit was defined as a compound inducing more than 20% reduction in viability of MDA-MB-231/Bcl-2 cells, compared to vector controls (MDA-MB-231/Vector). In the next step these shortlisted small molecules were tested for their ability to convert the conformation of Bcl-2 into a pro-apoptotic one.
To screen for Bcl-2 selective compounds, MDA-MB-231 cells (MDA-MB-231/Vector and MDA-MB-231/Bcl-2) were plated at 4000 cells per well in a 96 well black opaque plate. The day after plating the cells, treatment from the library plates was done so as to add 1 μL of the compound into the cells, resulting in 10 μM concentration. For non-specific […], 25 nM of staurosporin was used. […] Post treatment viability was assessed by CellTiter Glo Cell Viability assay (Promega Inc., Madison, Wis.) as per manufacturer instructions.
Viability for test compounds in each cell line (MDA-MB-231/Vector and MDA-MB-231/Bcl-2) was normalized to their respective vehicle treatments. Compounds that had at least 20% less viability in the MDA-MB-231/Bcl-2 cell line than the MDA-MB-231/Vector cell line were selected as initial hits and shortlisted for revalidation. Revalidated compounds were reordered for further testing and characterization. All data analyses were performed using Microsoft Excel.

[3] = system: MCF-7/Vector and MCF-7/Bcl-2 cells; experiment: Viability of MCF-7 cells with high and low Bcl-2; format: cell-based, human; settings: 10% FBS
Protocol: MDA-MB-231 and MCF-7 breast cancer cell lines stably overexpressing Bcl-2 were generated via electroporation and subsequent clonal expansion in G418-containing media. MDA-MB-231 cell clones with sufficiently high expression of Bcl-2 (MDA-MB-231/Bcl-2) determined by western blotting was selected for screening along with their vector controls (MDA-MB-231/Vector). Similarly MCF-7 cells clones were selected for characterization of lead molecules.
Cell viability was determined using CellTiter Glo Luminescent Cell Viability Assay (Promega, Madison, Wis.) as per manufacturer instructions. DAPI stain was used to assess apoptosis. Colony forming assays were performed as described previously.

[4] = system: MDA-MB-468 cells with or without Bcl-2 expression; experiment: Viability of MDA-MB-468 cells with Bcl-2 knockdown; format: cell-based, human; settings: 10% FBS; for Effect of Bcl-2 knockdown on viability effect in MDA-MB-468 cells: 48 h
Protocol: For Bcl-2 knockdown experiments, MDA-MB-468 cells were seeded at 4,000 cells per well in a 96 well black plate. The day after seeding, cells were subjected to Bcl-2 knockdown with 25 ng siRNAs (Dharmacon Research, Lafayette, Colo.) or 25 ng control siRNA against luciferase (Dharmacon Research, Lafayette, Colo.) using Dharmafect as transfecting reagent. After 72 h of transfection time, cells were treated with indicated compounds for 48 h and viability was assayed with CellTiter Glo Luminescent Cell Viability Assay (Promega, Madison, Wis.).

[5] = system: normal mammary epithelial cells (MCF-10A and HMECs); experiment: Viability of normal mammary epithelial cells; format: cell-based, human
Text: FIG. 9F depicts viability of methotrexate treated breast cancer cell line (ZR-75-1) in comparison to normal mammary epithelial cells (MCF-10A and HMECs).

[6] = system: MDA-MB-231/Vector and MDA-MB-231/Bcl-2 cells; experiment: Clonogenic survival of MDA-MB-231 cells; format: cell-based, human
Bcl-2 loop domain = Bcl-2 loop domain (Homo sapiens, UniProt P10415); experiment: Limited proteolysis of GST tagged Bcl-2 loop domain with trypsin; format: biochemical; settings: for Proteolysis of Bcl-2 loop domain: 50 μM, trypsin 1, 2, 4 and 8 min
Chain of Bcl-2 loop domain (P10415 29-90 limits assumed): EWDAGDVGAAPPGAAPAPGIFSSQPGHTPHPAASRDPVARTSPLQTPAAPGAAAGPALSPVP
Protocol: FIG. 11B depicts proteolysis of Bcl-2 loop domain in the presence of methotrexate. GST tagged BCl-2 loop domain was incubated with 1 μM methotrexate at the indicated times to determine if methotrexate interaction with loop domain has an effect on the proteolysis pattern upon co incubation with trypsin.
Purified GST tagged Bcl-2 loop domain was incubated with 50 μM BFC1108 at the indicated times to determine if BFC1108 interaction with loop domain has an effect on the proteolysis pattern upon co-incubation with trypsin.
FIG. 22B depicts limited proteolysis of Bcl-2 loop domain in the presence of BFC1103.
(§1) GST-Bcl-2 and GST only fragments (60 μg) were incubated with 0.1% DMSO or BFC1103 (50 μM) for 1 h and proteolyzed by 3 μg/ml of trypsin for 1, 2, 4 and 8 min. Reactions were quenched by the addition of laemmli buffer. The resulting protease cleavage fragments were resolved on a 12% SDS-PAGE gel and visualized by coomassie blue staining.
as §1, with “GST-Bcl-2 loop71” for “GST-Bcl-2”, “Laemmli” for “laemmli”, “Coomassie” for “coomassie”

H460 cells = experiment: JC-1 staining of mitochondrial membrane potential; format: cell-based, human; settings: 16 h, 10% FBS, 10 μM for MTX and BFC1103
Protocol: JC-1 was used to stain live cells undergoing treatment with MTX at 10 μM for 16 h and images taken with FITC and Rhodamine filters were overlayed. Cells stained orange have intact mitochondrial outer membrane and the ones turning green have compromised outer membrane indicating loss of membrane potential.
(§2) FIG. 17D JC-1 stain was used to stain live H460 cells that were treated with M BFC1108 for 16 h in 10% FBS containing medium and images taken with FITC and rhodamine filters were overlaid. Cells stained orange have intact mitochondrial outer membrane and the ones turning green have compromised outer membrane indicating loss of membrane potential.
as §2, with “JC-1” for “FIG. 17D JC-1”, “cells” for “cells that were”, “10 μM BFC1103” for “M BFC1108”

Bcl-2 = Bcl-2 (Homo sapiens, UniProt P10415); experiment: Bcl-2 conformational change by Bcl-2 BH3 domain antibody and flow cytometry; settings: 10 μM, 10% serum
Chain of Bcl-2 (P10415 whole entry, the tested form may be a part): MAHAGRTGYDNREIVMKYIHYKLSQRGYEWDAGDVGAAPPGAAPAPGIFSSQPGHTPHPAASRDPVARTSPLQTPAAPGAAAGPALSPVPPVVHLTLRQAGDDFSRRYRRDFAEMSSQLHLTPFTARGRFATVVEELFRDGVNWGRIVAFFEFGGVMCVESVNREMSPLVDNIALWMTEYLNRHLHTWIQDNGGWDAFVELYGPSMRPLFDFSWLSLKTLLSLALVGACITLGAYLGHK
Protocol: MDA-MB231/Bcl-2 cells and H460 cells were exposed to MTX at 10 μM concentration for 24 h in a medium containing 10% serum. Change in Bcl-2 conformation was determined using Bcl-2 BH3 only anti-body followed by flow cytometric analysis.
Change in conformation of Bcl-2 was determined by using Bcl-2 BH3 antibody followed by flow cytometric analysis.
Change in conformation of Bcl-2 was determined by using Bcl-2 BH3 only antibody followed by flow cytometric analysis.
When there is a conformational change in Bcl-2 protein, the BH3 domain is exposed and is detected by the Bcl-2 BH3 domain antibody.

[7] = 10 μM, 48 h, colony formation for 2 weeks

CCCCc1ccc(NC(=O)CN(Cc2ccccc2)S(C)(=O)=O)cc1 [BFC1103, N-2-benzyl-N-1-(4-butylphenyl)-N-2-(methylsulfo-nyl) glycinamide]
Bcl-2 dependent effect on viability, Jurkat/Bcl-2 vs control ([1]; 10 μM, 24 h, 10% serum): reduced the viability of Jurkat human T cell leukemia cells with high Bcl-2 expression, compared to control cells | Bcl-2 selective reduction in viability, MDA-MB-231/Bcl-2 vs MDA-MB-231/Vector ([2]; 24 h): Bcl-2 dependent reduction in viability of MDA-MB-231 cells; also recorded: Bcl-2 selective induction of cell death | Viability of MDA-MB-231 with increased Bcl-2 vs control cells under hypoxic conditions ([2]; hypoxic conditions): significant reduction in viability of MDA-MB-231 with increased Bcl-2 expression compared to the control cells | Bcl-2 dependent effect on viability, MCF-7/Bcl-2 vs MCF-7/Vector ([3]; 10 μM, 24 h): reduced the viability of MCF-7 cells with high Bcl-2 levels, compared to Bcl-2 low expressing control cells | Effect of Bcl-2 knockdown on viability effect in MDA-MB-468 cells [4]: Suppression of Bcl-2 expression reduced the effect of BFC1103 | Viability of normal mammary epithelial cells MCF-10A ([5]; 24 h, 10% FBS): minimal effect on normal mammary epithelial cells (MCF-10A) | Clonogenic survival of MDA-MB-231 cells over-expressing Bcl-2 vs control cells [6, 7]: formed significantly fewer colonies, compared to control cells | Proteolysis of Bcl-2 loop domain (Bcl-2 loop domain): delayed the proteolysis of the loop domain of Bcl-2 | Mitochondrial membrane potential (JC-1 dye) (H460 cells): decrease in their mitochondrial outer membrane potential | Change in Bcl-2 conformation (BH3 domain exposure) in MDA-MB-231/Bcl-2 cells (Bcl-2; 48 h): changed conformation of Bcl-2 of was detected in MDA-MB-231/Bcl-2 cells

CCOc1ccccc1NC(=O)c1cc(Cl)ccc1NC(=O)c1ccc(OC)cc1 [BFC1108, 5-chloro-N-(2-ethoxyphenyl)-2-[(4-methoxybenzoyl)amino]-benzamide]
Bcl-2 dependent effect on viability, Jurkat/Bcl-2 vs Jurkat/Vector ([1]; 48 h, 10% FBS): reduction in viability was seen compared to their Bcl-2 low-expressing control cells | Bcl-2 selective reduction in viability, MDA-MB-231/Bcl-2 vs MDA-MB-231/Vector ([2]; 24 h): better Bcl-2 selective induction of cell death | Bcl-2 dependent reduction in viability, MDA-MB-231/Bcl-2 vs Vector ([2]; 48 h): dose dependent reduction in viability of Bcl-2-high expressing cells (MDA-MB-231/Bcl-2), compared to their vector controls | Bcl-2 dependent effect on viability, MCF-7/Bcl-2 vs MCF-7/Vector ([3]; 48 h): MCF-7 cells with high-Bcl-2 expression are more sensitive to BFC1108 | Effect of Bcl-2 knockdown on viability effect in MDA-MB-468 cells [4]: When Bcl-2 was knocked down, the cells were rescued from the effects of BFC1108 | Viability of normal mammary epithelial cells MCF-10A ([5]; 48 h, 10% serum): No effect on the viability of MCF-10A cells | Effect on colony forming ability of low Bcl-2 expressing 231/Vector control cells [6, 7]: not seen | Reduction in colony forming ability of MDA-MB-231/Bcl-2 cells compared to vehicle controls [6, 7]: 50% | Proteolysis of Bcl-2 loop domain (Bcl-2 loop domain): increased proteolysis of Bcl-2 loop domain was noticeable by 4 min time point | Mitochondrial membrane potential (JC-1 dye) (H460 cells): decreased mitochondrial membrane potential | Change in Bcl-2 conformation (BH3 domain exposure) in MDA-MB-231/Bcl-2 cells (Bcl-2; 48 h): changed conformation of Bcl-2 was detected

CN(Cc1cnc2nc(N)nc(N)c2n1)c1ccc(C(=O)N[C@@H](CCC(=O)O)C(=O)O)cc1 [MTX, (2S)-2-[[4-[(2,4 diaminopteridin-6-yl)methylmethylamino]benzoyl]amino] pentanedioc acid]
Bcl-2 dependent effects in Jurkat Lymphoma cells ([1]; Bcl-2 low and high expressing Jurkat lymphoma cells treated for 72 hours with various concentrations): Yes | minimal effective concentration ([1]; Homo sapiens, Jurkat lymphoma cells, 72 hours, n/d means no reduction was detected at concentrations tested, read-out: Lowest effective dose (minimal effective concentration that induced Bcl-2-dependent reduction in cell viability)): 0.01 µM | Viability of Jurkat/Bcl-2 vs Vector under hypoxic conditions ([1]; hypoxic conditions, 10% FBS, 24 h): significant reduction in viability of Jurkat/Bcl-2 cells compared to their Vector control | Bcl-2 dependent apoptosis with folate supplementation ([1]; supplemented with 1 μM of folic acid): Bcl-2 dependent apoptosis was still observed | Bcl-2 selective reduction in viability, MDA-MB-231/Bcl-2 vs MDA-MB-231/Vector ([2]; 24 h): selectively induce more cell death in high-Bcl-2 expressing MDA-MB-231 cells | Bcl-2 dependent reduction in viability, MDA-MB-231/Bcl-2 vs Vector ([2]; various concentrations, 24 h): reduced viability in MDA-MB-231/Bcl-2 cells significantly in comparison to the MDA-MB-231/Vector control cells | Bcl-2 dependent effect on viability, MCF-7/Bcl-2 vs MCF-7/Vector ([3]; 10 μM, 24 h): Bcl-2 dependent effect of MTX was consistent in estrogen receptor (ER) positive MCF-7 cells over-expressing Bcl-2 | Effect of Bcl-2 knockdown on effect in MDA-MB-468 cells ([4]; various concentrations, 24 h): Knockdown of Bcl-2 in MDA-MB-468 cells diminished the apoptotic effect of MTX | Viability of normal breast epithelial cells MCF-10A and HMEC ([5]; similar concentrations of MTX as in cancer cells): relatively unaffected | Reduction in colonies formed by MDA-MB-231/Bcl-2 cells compared to vector controls ([6]; 10 μM MTX, 24 h): 60% | Proteolysis pattern of Bcl-2 loop domain (Bcl-2 loop domain; 1 μM methotrexate, trypsin): differential proteolysis pattern | Mitochondrial membrane potential (JC-1 dye) (H460 cells): decrease in their mitochondrial membrane potential | Change in Bcl-2 conformation (BH3 domain exposure) in H460 cells (Bcl-2; 24 h): also observed in H460 cells | Change in Bcl-2 conformation (BH3 domain exposure) in MDA-MB-231/Bcl-2 cells (Bcl-2; 24 h): considerable shift in the staining of MTX treated cells indicating change in the Bcl-2 conformation
